Columns and labels:
[1] = system: Tick; assay: Tick repellency on skin; type: in vivo; conditions: on its own
[2] = system: Fire ants; assay: Spray test on fire ants; type: in vivo, Red Imported species
Method: The time various compositions take to both knock down (KD) and kill (TM) various pests was determined. As a control, results were compared using sodium lauryl sulfate by itself, and with the various fatty acids.
The tests were conducted for a maximum observation time of 30 minutes, after which time, the test, and all observations, was stopped.
Protocol: Fire ants (Red Imported species) were directly sprayed while traveling on the ground. The average amount of material per area was calculated. The amount of material to kill the Fire Ant was determined.

CCCCCCCCCCCCOS(=O)(=O)[O-].[Na+] [sodium lauryl sulfate]
Repellency to ticks [1]: not observed to be particularly repellent | Amount of aqueous 10% SLS mixture to kill the fire ant [2]: around 20 ml
